Measurements published in patent publication US8629173B2, “Solid forms comprising (+)-2-[1-(3-ethoxy-4-methoxyphenyl)-2-methylsulfonylethyl]-4-acetylaminoisoindoline-1,3-dione, compositions thereof, and uses thereof” (Celgene Corporation, priority 2002, dated 2014).

Tests used:
PDE4 (from U937 cells) = test: PDE4 (U937 cell-derived) enzyme assay; type: biochemical, human; details: 1 μM cAMP
bovine PDE1 = test: PDE1 enzyme assay; type: biochemical
human PDE2 = human PDE2 (Homo sapiens, UniProt O00408); test: PDE2 enzyme assay; type: biochemical
human PDE2, sequence (O00408 whole entry): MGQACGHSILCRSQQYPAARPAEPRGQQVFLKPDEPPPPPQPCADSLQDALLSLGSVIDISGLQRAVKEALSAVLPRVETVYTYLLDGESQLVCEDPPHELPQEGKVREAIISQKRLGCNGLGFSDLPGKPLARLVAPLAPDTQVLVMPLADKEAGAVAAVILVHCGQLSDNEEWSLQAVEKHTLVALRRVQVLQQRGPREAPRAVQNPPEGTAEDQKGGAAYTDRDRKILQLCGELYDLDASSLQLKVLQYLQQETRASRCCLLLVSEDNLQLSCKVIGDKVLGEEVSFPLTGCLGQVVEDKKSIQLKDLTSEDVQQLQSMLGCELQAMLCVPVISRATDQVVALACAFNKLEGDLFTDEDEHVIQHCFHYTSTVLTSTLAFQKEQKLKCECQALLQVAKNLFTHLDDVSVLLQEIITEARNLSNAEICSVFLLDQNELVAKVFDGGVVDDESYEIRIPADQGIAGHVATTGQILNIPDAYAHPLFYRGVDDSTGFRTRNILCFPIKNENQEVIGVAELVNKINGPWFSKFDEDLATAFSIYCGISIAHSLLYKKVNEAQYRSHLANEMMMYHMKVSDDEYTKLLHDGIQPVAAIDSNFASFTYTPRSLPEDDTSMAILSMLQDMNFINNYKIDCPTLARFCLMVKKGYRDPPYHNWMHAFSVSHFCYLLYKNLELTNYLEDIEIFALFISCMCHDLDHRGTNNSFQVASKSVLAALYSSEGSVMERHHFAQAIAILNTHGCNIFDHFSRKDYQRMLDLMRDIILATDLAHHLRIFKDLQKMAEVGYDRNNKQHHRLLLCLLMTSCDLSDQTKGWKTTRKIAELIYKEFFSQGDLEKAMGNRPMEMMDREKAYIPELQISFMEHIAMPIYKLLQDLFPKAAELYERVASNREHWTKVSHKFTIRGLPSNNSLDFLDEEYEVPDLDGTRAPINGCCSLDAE

[1] = target: PDE3 from human platelets (Homo sapiens, UniProt Q14432); test: PDE3 enzyme assay; type: biochemical
PDE3 from human platelets, sequence (Q14432 whole entry): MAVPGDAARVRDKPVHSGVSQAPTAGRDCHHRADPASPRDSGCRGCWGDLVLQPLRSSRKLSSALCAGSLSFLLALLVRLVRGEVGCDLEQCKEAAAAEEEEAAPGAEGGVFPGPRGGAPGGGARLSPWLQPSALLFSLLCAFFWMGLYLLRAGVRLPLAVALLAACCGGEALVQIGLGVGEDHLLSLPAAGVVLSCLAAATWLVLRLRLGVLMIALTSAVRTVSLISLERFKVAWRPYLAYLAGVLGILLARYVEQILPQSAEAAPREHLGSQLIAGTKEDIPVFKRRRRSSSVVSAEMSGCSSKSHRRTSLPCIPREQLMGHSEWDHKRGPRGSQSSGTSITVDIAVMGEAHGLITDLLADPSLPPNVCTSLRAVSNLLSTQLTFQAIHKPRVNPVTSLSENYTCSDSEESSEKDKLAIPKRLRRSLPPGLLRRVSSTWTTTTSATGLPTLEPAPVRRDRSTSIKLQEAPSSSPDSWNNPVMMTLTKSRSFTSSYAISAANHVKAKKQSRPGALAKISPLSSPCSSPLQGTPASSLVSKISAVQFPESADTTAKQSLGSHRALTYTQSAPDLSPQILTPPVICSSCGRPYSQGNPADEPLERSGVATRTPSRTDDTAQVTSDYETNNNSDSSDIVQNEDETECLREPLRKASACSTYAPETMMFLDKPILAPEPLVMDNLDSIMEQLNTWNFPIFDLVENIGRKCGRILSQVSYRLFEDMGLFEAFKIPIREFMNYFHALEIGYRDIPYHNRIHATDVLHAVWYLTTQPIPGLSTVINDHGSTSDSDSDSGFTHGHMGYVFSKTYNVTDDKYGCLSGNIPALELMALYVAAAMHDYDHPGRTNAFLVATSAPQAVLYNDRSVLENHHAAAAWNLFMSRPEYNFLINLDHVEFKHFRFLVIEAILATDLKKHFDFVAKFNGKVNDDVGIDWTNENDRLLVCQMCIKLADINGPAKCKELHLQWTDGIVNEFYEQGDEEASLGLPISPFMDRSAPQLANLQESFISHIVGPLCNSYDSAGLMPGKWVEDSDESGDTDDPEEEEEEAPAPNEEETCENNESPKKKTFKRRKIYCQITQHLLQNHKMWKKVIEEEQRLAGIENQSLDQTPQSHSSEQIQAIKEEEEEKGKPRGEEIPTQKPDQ

[2] = target: PDE5 from human platelets (Homo sapiens, UniProt O76074); test: PDE5 enzyme assay; type: biochemical
[3] = target: T1, PDE6 from bovine retinal rod outer segments (Bos taurus, UniProt P11541+P23439); test: PDE6 enzyme assay; type: biochemical
T1 construct: PDE6 from bovine retinal rod outer segments; from tissue; host or cells: bovine retinal rod outer segments
T1 sequence (P11541 2-856 limits assumed): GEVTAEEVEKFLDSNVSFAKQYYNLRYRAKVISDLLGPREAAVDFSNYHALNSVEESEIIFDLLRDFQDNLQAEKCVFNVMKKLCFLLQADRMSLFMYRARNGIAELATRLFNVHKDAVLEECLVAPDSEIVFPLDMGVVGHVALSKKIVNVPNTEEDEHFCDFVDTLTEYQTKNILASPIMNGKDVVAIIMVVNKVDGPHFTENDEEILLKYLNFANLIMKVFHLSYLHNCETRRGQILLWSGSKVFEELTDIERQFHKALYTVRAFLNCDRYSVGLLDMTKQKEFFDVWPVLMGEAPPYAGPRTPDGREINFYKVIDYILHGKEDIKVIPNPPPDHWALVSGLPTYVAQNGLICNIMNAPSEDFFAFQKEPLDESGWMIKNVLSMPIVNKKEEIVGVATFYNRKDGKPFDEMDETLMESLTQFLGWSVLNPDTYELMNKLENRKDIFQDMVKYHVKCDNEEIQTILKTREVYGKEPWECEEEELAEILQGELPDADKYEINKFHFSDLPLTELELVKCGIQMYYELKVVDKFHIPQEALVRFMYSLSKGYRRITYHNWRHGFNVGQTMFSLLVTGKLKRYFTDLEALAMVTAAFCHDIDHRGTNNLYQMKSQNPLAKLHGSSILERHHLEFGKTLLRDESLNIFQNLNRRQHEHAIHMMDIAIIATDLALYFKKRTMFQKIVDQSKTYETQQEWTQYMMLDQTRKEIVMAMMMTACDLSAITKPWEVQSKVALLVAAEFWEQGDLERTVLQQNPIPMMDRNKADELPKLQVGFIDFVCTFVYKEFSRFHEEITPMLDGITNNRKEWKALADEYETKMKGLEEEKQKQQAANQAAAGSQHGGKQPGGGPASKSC
T1 sequence (P23439 2-850 limits assumed): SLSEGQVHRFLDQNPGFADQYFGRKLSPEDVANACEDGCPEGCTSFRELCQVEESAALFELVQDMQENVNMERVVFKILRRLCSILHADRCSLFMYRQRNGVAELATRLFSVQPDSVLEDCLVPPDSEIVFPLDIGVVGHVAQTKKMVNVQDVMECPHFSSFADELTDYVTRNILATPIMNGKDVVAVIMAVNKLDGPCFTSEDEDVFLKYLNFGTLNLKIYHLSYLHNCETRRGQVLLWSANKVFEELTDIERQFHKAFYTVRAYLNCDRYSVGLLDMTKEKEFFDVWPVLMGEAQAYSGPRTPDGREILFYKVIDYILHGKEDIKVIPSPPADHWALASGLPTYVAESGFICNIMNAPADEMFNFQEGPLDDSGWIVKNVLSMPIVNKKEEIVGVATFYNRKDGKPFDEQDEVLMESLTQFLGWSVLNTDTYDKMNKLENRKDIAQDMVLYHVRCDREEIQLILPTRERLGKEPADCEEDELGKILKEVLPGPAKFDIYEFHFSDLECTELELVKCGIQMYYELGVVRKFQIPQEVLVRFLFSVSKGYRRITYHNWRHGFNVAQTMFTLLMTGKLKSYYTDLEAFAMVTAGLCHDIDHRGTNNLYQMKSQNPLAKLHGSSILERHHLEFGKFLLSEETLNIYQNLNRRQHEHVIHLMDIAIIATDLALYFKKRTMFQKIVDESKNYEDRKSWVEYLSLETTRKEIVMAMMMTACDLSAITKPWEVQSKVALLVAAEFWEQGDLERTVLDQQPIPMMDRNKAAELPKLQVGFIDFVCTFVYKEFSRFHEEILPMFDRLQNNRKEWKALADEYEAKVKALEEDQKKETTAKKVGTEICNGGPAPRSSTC

With `CCOc1cc([C@H](CS(C)(=O)=O)N2C(=O)c3cccc(NC(C)=O)c3C2=O)ccc1OC` [Compound B] the IC50 (PDE4 (from U937 cells)) was 611 nM, the “PDE1 (% inhib at 10 μM)” value (bovine PDE1; 10 μM) was 27% and the “PDE Specificity Ratio PDE4/PDE1” value (bovine PDE1; from Table 1 data) was greater than 50 fold. The “PDE2 (% inhib at 10 μM)” value (human PDE2; 10 μM) was 10%, the “PDE Specificity Ratio PDE4/PDE2” value (human PDE2; from Table 1 data) was greater than 260 fold and the “PDE3 (% inhib at 10 μM)” value ([1]; 10 μM) was 31%. For the same compound, the “PDE Specificity Ratio PDE4/PDE3” value ([1]; from Table 1 data) was greater than 45 fold, the “PDE5 (% inhib at 10 μM)” value ([2]; 10 μM) was −9% and the “PDE Specificity Ratio PDE4/PDE5” value ([2]; from Table 1 data) was greater than 39000 fold. For the same compound, the “PDE6 (% inhib at 10 μM)” value ([3]; 10 μM) was 10% and the “PDE Specificity Ratio PDE4/PDE6” value ([3]; from Table 1 data) was greater than 250 fold.
